Reference: US20260335468A1, “MOLECULAR RADIOAFTERGLOW PROBES FOR CANCER RADIODYNAMIC THERANOSTICS” (NANYANG TECHNOLOGICAL UNIVERSITY, priority 2023, published 2026)

Key:
[1] = ^1O2 generation upon X-ray irradiation (ESR, TEMP trap); format: physicochemical; conditions: X-ray irradiation, ESR
Method: To study ^1O2 generation, a mixture of DPAS or IDPAS (100 M) and TEMP (10 mM) in PBS (0.01 M, pH 7.4, 50% DMSO) was irradiated by X-rays at 2 Gy (100 mGy s^−1 for 20 s) or 5 mGy (250 μGy s^−1 for 20 s). The ESR signals of the mixture were recorded with a Bruker A300 instrument. The ESR signal of the free radical 2,2,6,6-tetramethyl-1-piperidinyloxyl (g=2.0060) was generated by the reaction of ^1O2 with TEMP. The ^1O2 quencher NaN3 (1 mM) was added to validate the afterglow mechanism of IDPASu. Additionally, other commercially available radio sensitizers (such as acridine orange, hematoporphyrin and verteporfin) were measured and compared. The procedure of block depths was similar to that of the tissue penetration depth study and the ^1O2 generation for different depth tissues was measured. The ESR signal changes of MRAP in the absence or presence of CatB were measured in a similar way. The ESR signals of 2,2,6,6-tetramethyl-1-piperidinyloxyl from the reaction of ^1O2 with TEMP were plotted as a function of the concentration of ^1O2, which was generated by the addition of NaOCl to H2O2. This generated the standard curve between the ESR intensity and ^1O2 concentration.

[2] = O2·^− detection with DHR123 upon X-ray irradiation; format: physicochemical; conditions: elevated radiation dosage
Method: (§1) To study other ROS generation, fluorescence sensors DHR123 (for O2·^− detection) and HPF (for ·OH detection) were used. For O2·^− detection, DHR123 (10 PM) was added to a solution of IDPASu (10 M) in PBS (0.01 M pH 7.4, 50% DMSO), followed by X-ray irradiation at different doses of 5 mGy (250 μGy s^−1 for 20 s) and 2 Gy (100 mGy s^1 for 20 s). The fluorescence changes in DHR123 were recorded at λex of 505 nm and λem of 534 nm. For ·OH detection, HPF ([…]) was added in a solution of IDPASu (10 M) in PBS (0.01 M, pH 7.4, 50% DMF), followed by X-ray irradiation at different doses, namely, 5 mGy (250 μGy s^−1 for 20 s) and 2 Gy (100 mGy s^−1 for 20 s). The fluorescence changes in HPF were collected at ex of 450 nm and λem of 515 nm. The ROS production was calculated by the corresponding standard curve.

[3] = ·OH and other ROS detection (HPF) upon X-ray irradiation; format: physicochemical
Method: as §1

[4] = HPLC analysis of IDPASu after X-ray irradiation; format: physicochemical
Method: HPLC purification and analyses were performed with an Agilent 1260 system using methanol/H2O or acetonitrile/H2O as an eluent. X-ray irradiation was conducted with MOXTEK MAGPRO (Moxtek, Inc. 452 West 1260 North Orem, UT 84057) and the dose was calibrated by RAYSAFE R/F X2 X (FLUKE, USA). White-light irradiation was used by a xenon lamp PLS-SEX300D (Beijing Perfectlight Technology Co., Ltd.).
To study the radio afterglow mechanism, the sample of IDPASu after X-ray irradiation was analysed with HPLC and high-resolution mass spectrometry.

[5] = test system: U87MG subcutaneous tumor; assay: X-ray-induced afterglow in U87MG subcutaneous tumor-bearing mice; format: in vivo, Balb/c nude mice; conditions: local injection
Method: For in vivo RAI by IDPASu, subcutaneous U87-tumour-bearing mice were intratumorally injected with IDPASu(100 μM, […]) solubilized with P-cyclodextrin (100 μM). Each group has three mice. At different post-injection timepoints (0, 0.5, 1.0, 2.0, 4.0, 6.0, 8.0, 12.0, 16.0 and 24.0 h), the tumours were irradiated with X-rays (5 mGy, 250 μGy s^−1 for 20 s), followed by radio afterglow detection using the IVIS imaging system under the bioluminescence mode with an open filter and acquisition time of 120 s. Tumour-free areas were protected by a 3.4-mm-thick lead shield with a notch. […] Radio afterglow signals from brain tumours were recorded with the IVIS imaging system under the bioluminescence mode with an open filter and acquisition time of 120 s. […] The tumour sizes were calculated as per the above-mentioned equation, showing ~0 mm^3 for 1 day post-implantation, 6 mm^3 (tumour diameter, 2.3 mm) for 5 days post-implantation, 22 mm^3 for 10 days post-implantation, 43 mm^3 for 20 days post-implantation and 77 mm^3 for 30 days post-implantation. At 15 min post-intraperitoneal injection of aqueous d-luciferin sodium salt (500 μmol kg^−1) solution into mice with different tumour sizes, the bioluminescence signals from the tumour sites were recorded with the IVIS imaging system under the bioluminescence mode with an open filter and automatic acquisition time. […]

[6] = X-ray 2 Gy, 100 mGy s^−1 for 20 s

- conversion yield to activated IDPASu (peak at 6.0 min) [4, 6]: 7.6%
- conversion yield to dioxetane compound (peak at 14.8 min) [4, 6]: 3.3%
- luminophore consumed by one cycle of irradiation ([4]; one cycle at 250 μGy s^−1 for 20 s, HPLC): ~ 3%
Structure (SMILES): COC(=C1C2CC3CC(C2)CC1C3)c1cc(O)c(I)cc1/C=C/C1=CC(=C(C#N)C#N)c2ccccc2S1 [IDPASu]
- ^1O2 generation / radiodynamic activity [1]: the highest
- O2·^− generation [2]: only minimal O2·^− could be generated
- HPF+IDPASu (+X-ray) versus HPF+IDPASu (−X-ray), ·OH ([3]; 250 μGy s^−1 or 100 mGy s^−1 for 20 s): not significant
- other ROS generation ([3]; X-ray irradiation): undetectable
- Intensity per dose per mouse [5]: 1.27 × 10^6 (p/s/cm2/sr)/(μg)
